Like-named read-outs stand apart in the source and are kept apart here.
Key:
[1] = target: mutant FLT3 protein (FLT3 D835Y) (Homo sapiens (Human), UniProt P36888, D835Y); experiment: Mutant FLT3 (FLT3 D835Y) enzyme inhibition assay; assay type: biochemical; details: ATP 15 μmol/L, read-out: IC50 value for an enzymatic activity of a mutant FLT3 protein
32D FLT3 D835E cells = experiment: Cell growth assay, 32D FLT3 D835E; assay type: cell-based; details: Mus musculus, 48 h, read-out: GI50 value for growth of FLT3 protein-expressing 32D cells
Description: (§1) After the virus-containing culture supernatant was added to the mouse hematopoietic precursor cell line 32D cells in the presence of 10 μg/mL polybrene, and the cells were cultured in the presence of 0.5 ng/mL mouse IL-3.
(§2) Individual cells were seeded onto a 96-well plate (Becton, Dickinson and Company) at a density of 1000 to 10000 cells/well, and the cell culture was started at 37° C. in the presence of 5% CO2. On the next day, the compound diluted in 3-fold common ratio was added to each well, followed by further culturing for 2 days. Then, in order to evaluate the cell viability, a CellTiter 96 AQueous One SolutionReagent was added to each well according to the Promega Corporation's protocol, followed by culturing for 1 hour. […] In a case where the absorbance is insufficient, the absorbance was measured after performing the culturing for another 1 to 2 hours.

32D FLT3 Y842H cells = experiment: Cell growth assay, 32D FLT3 Y842H; assay type: cell-based; details: Mus musculus, 48 h, read-out: GI50 value for growth of FLT3 protein-expressing 32D cells
Description: as §1, §2

32D FLT3 Y842C cells = experiment: Cell growth assay, 32D FLT3 Y842C; assay type: cell-based; details: Mus musculus, 48 h, read-out: GI50 value for growth of FLT3 protein-expressing 32D cells
Description: as §1, §2

32D FLT3 D835H cells = experiment: Cell growth assay, 32D FLT3 D835H; assay type: cell-based; details: Mus musculus, 48 h, read-out: GI50 value for growth of FLT3 protein-expressing 32D cells
Description: as §1, §2

32D FLT3 D835N cells = experiment: Cell growth assay, 32D FLT3 D835N; assay type: cell-based; details: Mus musculus, 48 h, read-out: GI50 value for growth of FLT3 protein-expressing 32D cells
Description: as §1, §2

32D FLT3 D835Ins cells = experiment: Cell growth assay, 32D FLT3 D835Ins; assay type: cell-based; details: Mus musculus, 48 h, read-out: GI50 value for growth of FLT3 protein-expressing 32D cells
Description: as §1, §2

32D FLT3 D835V cells = experiment: Cell growth assay, 32D FLT3 D835V; assay type: cell-based; details: Mus musculus, 48 h, read-out: GI50 value for growth of FLT3 protein-expressing 32D cells
Description: as §1, §2

32D FLT3 D835Y cells = experiment: Cell growth assay, 32D FLT3 D835Y; assay type: cell-based; details: Mus musculus, 48 h, read-out: GI50 value for growth of FLT3 protein-expressing 32D cells
Description: as §1, §2

32D FLT3/FL cells = experiment: Cell growth assay, FLT3/FLT3 ligand-coexpressing 32D cell line; assay type: cell-based; details: Mus musculus, 48 h, read-out: GI50 value for growth of FLT3 protein-expressing 32D cells
Description: RPMI1640 and DMEM were purchased from Life Technologies or SIGMA. The 32D cells were obtained from RIKEN Bioresource Center, and cultured in the presence of 5% CO2 at 37° C. using an RPMI1640 medium containing 1 ng/mL mouse IL-3, 10% fetal bovine serum (FBS), 100 U/mL penicillin and […] streptomycin. The PLAT-E cells were kindly provided by Dr. Kitamura Toshio of Tokyo University and cultured in a DMEM medium containing 1 μg/mL puromycin, 10 μg/mL blasticidin S, 10% FBS, 100 U/mL penicillin and […] streptomycin. […] A pGEM-T vector, FuGENE6 and CellTiter 96 AQueous One Solution Cell Proliferation Assay were purchased from Promega Corporation.
as §2

[2] = FLT3 D835E, 2 days with compound
[3] = FLT3 Y842H, 2 days with compound
[4] = FLT3 Y842C, 2 days with compound
[5] = FLT3 D835H, 2 days with compound
[6] = FLT3 D835N, 2 days with compound
[7] = FLT3 D835Ins (I836 to leucine and aspartic acid), 2 days with compound
[8] = FLT3 D835V, 2 days with compound
[9] = FLT3 D835Y, 2 days with compound

Row | SMILES | IC50 [1] [nM] | further results
1 | CCCNc1nc(NCCc2ccncc2)ncc1C(=O)NCCC(CC)NC(=O)CNC(=O)/C=C/CN(C)C (stereo not drawn) [Compound 18] | < 1 | –
2 | CCCNc1nc(Nc2ccc(C(N)=O)cc2)ncc1C(=O)NCCCNC(=O)[C@H](C)N(C)C(=O)/C=C/CN(C)C [Compound 25] | < 1 | –
3 | CCCNc1nc(Nc2ccc(C(N)=O)cc2)ncc1C(=O)NC1CCCC(NC(=O)CN(C)C(=O)/C=C/CN(C)C)C1 (stereo not drawn) [Compound 26] | < 1 | –
4 | CCCNc1nc(NCCc2ccncc2)ncc1C(=O)NCCC(CC)NC(=O)CN(C)C(=O)/C=C/CN(C)C (stereo not drawn) [Compound 20] | < 1 | –
5 | C=CC(=O)N(C)CC(=O)Nc1cccc(NC(=O)c2cnc(NCCc3ccncc3)nc2NCCC)c1 [Compound 10] | < 1 | –
6 | C=CC(=O)N[C@H](C)C(=O)Nc1cccc(NC(=O)c2cnc(NCCc3ccncc3)nc2NCCC)c1 [Compound 8] | 1 to 10 | –
7 | C=CC(=O)NCC(=O)NCCCNC(=O)c1cnc(NCCc2ccncc2)nc1NCCC [Compound 7] | < 1 | –
8 | CCCNc1nc(Nc2ccc(C(N)=O)cc2)ncc1C#Cc1cccc(NC(=O)[C@H](C)N(C)C(=O)/C=C/CN(C)C)c1 [Compound 29] | < 1 | –
9 | C[C@@H](C(=O)Nc1cccc(C#Cc2cnc(NCCc3ccncc3)nc2N2CCOCC2)c1)N(C)C(=O)/C=C/CN(C)C [Compound 36] | < 1 | –
10 | CCCNc1nc(NCCc2ccncc2)ncc1C(=O)Nc1cccc(NC(=O)CNC(=O)/C=C/CN2CC(C)NC(C)C2)c1 (stereo not drawn) [Compound 21] | < 1 | –
11 | CCCNc1nc(NCCc2ccncc2)ncc1C(=O)Nc1cccc(NC(=O)[C@H](C)N(C)C(=O)/C=C/CN(C)C)c1 [Compound 30] | < 1 | –
12 | CCCNc1nc(NCCc2ccncc2)ncc1C(=O)NCCCNC(=O)CNC(=O)/C=C/CN(C)C [Compound 23] | < 1 | –
13 | CCCNc1nc(Nc2ccc(C(N)=O)cc2)ncc1C(=O)Nc1cccc(NC(=O)[C@H](C)N(C)C(=O)/C=C/CN2CC(O)C2)c1 [Compound 32] | < 1 | –
14 | CCCNc1nc(Nc2ccc(C(N)=O)cc2)ncc1C#Cc1cccc(NCCNC(=O)/C=C/CN(C)C)c1 [Compound 31] | 1 to 10 | –
15 | C=CC(=O)NCC(=O)Nc1ccccc1CNC(=O)c1cnc(NCCc2ccncc2)nc1NCCC [Compound 3] | 1 to 10 | –
16 | C=CC(=O)NCC(=O)Nc1cc(Cl)cc(NC(=O)c2cnc(NCCc3ccncc3)nc2NCCC)c1 [Compound 4] | 1 to 10 | –
17 | C=CC(=O)NCCOc1cccc(NC(=O)c2cnc(NCCc3ccncc3)nc2NCCC)c1 [Compound 6] | 1 to 10 | –
18 | C=CC(=O)N[C@@H](C)C(=O)Nc1cccc(NC(=O)c2cnc(NCCc3ccncc3)nc2NCCC)c1 [Compound 16] | < 1 | –
19 | CNc1nc(Nc2ccc(F)cc2)ncc1C#C[C@H]1C[C@@H](NC(=O)[C@H](C)N(C)C(=O)/C=C/CN(C)C)C1 [Compound 41] | < 1 | GI50 (32D FLT3 D835E cells; [2]): 1 to 10 nM; GI50 (32D FLT3 Y842H cells; [3]): 1 to 10 nM; GI50 (32D FLT3 Y842C cells; [4]): 1 to 10 nM; GI50 (32D FLT3 D835H cells; [5]): 1 to 10 nM; GI50 (32D FLT3 D835N cells; [6]): 1 to 10 nM; GI50 (32D FLT3 D835Ins cells; [7]): 1 to 10 nM; GI50 (32D FLT3 D835V cells; [8]): 1 to 10 nM; GI50 (32D FLT3 D835Y cells; [9]): 1 to 10 nM; GI50 (32D FLT3/FL cells; FLT3/FL, 2 days with compound): < 1 nM
20 | C=CC(=O)NCC(=O)Nc1cccc(CNC(=O)c2cnc(NCCc3ccncc3)nc2NCCC)c1 [Compound 1] | 1 to 10 | –

Row | SMILES | IC50 [1] [nM] | further results
21 | CCCNc1nc(Nc2cccc(C#N)c2)ncc1C#CCCCNC(=O)[C@H](C)N(C)C(=O)/C=C/CN(C)C [Compound 33] | 1 to 10 | –
22 | C=CC(=O)NCCNc1cccc(NC(=O)c2cnc(NCCc3ccncc3)nc2NCCC)c1 [Compound 15] | 1 to 10 | –
23 | CCCNc1nc(NCCc2ccncc2)ncc1C(=O)Nc1ccc(C)c(NC(=O)CNC(=O)/C=C/CN(C)C)c1 [Compound 22] | < 1 | –
24 | CCCNc1nc(NCCc2ccncc2)ncc1C(=O)Nc1cccc(NC(=O)CNC(=O)/C=C/CN2CCN(CCO)CC2)c1 [Compound 14] | < 1 | –
25 | CCCNc1nc(Nc2cccc(F)c2)ncc1C#C[C@H]1C[C@@H](NC(=O)[C@H](C)N(C)C(=O)/C=C/CN(C)C)C1 [Compound 39] | < 1 | GI50 (32D FLT3 D835E cells; [2]): < 1 nM; GI50 (32D FLT3 Y842H cells; [3]): 1 to 10 nM; GI50 (32D FLT3 Y842C cells; [4]): 1 to 10 nM; GI50 (32D FLT3 D835H cells; [5]): 1 to 10 nM; GI50 (32D FLT3 D835N cells; [6]): < 1 nM; GI50 (32D FLT3 D835Ins cells; [7]): < 1 nM; GI50 (32D FLT3 D835V cells; [8]): 1 to 10 nM; GI50 (32D FLT3 D835Y cells; [9]): 1 to 10 nM; GI50 (32D FLT3/FL cells; FLT3/FL, 2 days with compound): < 1 nM
26 | C=CC(=O)NCC(=O)NC(CC)CCNC(=O)c1cnc(NCCc2ccncc2)nc1NCCC (stereo not drawn) [Compound 17] | < 1 | –
27 | C=CC(=O)NCC(=O)N(C)c1cccc(NC(=O)c2cnc(NCCc3ccncc3)nc2NCCC)c1 [Compound 11] | 1 to 10 | –
28 | CNC(=O)c1cc(Oc2ccc(NC(=O)Nc3ccc(Cl)c(C(F)(F)F)c3)cc2)ccn1 [Reference Compound 2, Sorafenib, reference compound] | – | GI50 (32D FLT3 D835E cells): 10 to 100 nM; GI50 (32D FLT3 Y842H cells): > 100 nM; GI50 (32D FLT3 Y842C cells): > 100 nM; GI50 (32D FLT3 D835H cells): > 100 nM; GI50 (32D FLT3 D835N cells): 10 to 100 nM; GI50 (32D FLT3 D835Ins cells): 10 to 100 nM; GI50 (32D FLT3 D835V cells): > 100 nM; GI50 (32D FLT3 D835Y cells): > 100 nM; GI50 (32D FLT3/FL cells): 10 to 100 nM
29 | CCCN(C)c1nc(NCCc2ccncc2)ncc1C#Cc1cccc(NC(=O)[C@H](C)N(C)C(=O)/C=C/CN(C)C)c1 [Compound 37] | < 1 | –
30 | CCCNc1nc(Nc2ccc3cnccc3c2)ncc1C(=O)Nc1cccc(NC(=O)[C@H](C)N(C)C(=O)/C=C/CN(C)C)c1 [Compound 28] | < 1 | –
31 | CCCNc1nc(NCCc2ccncc2)ncc1C(=O)Nc1cccc(NC(=O)CNC(=O)/C=C/CN(C)C)c1 [Compound 5] | < 1 | –
32 | CCCNc1nc(NCCc2ccncc2)ncc1C#Cc1cccc(NC(=O)[C@H](C)N(C)C(=O)/C=C/CN(C)C)c1 [Compound 35] | < 1 | –
33 | CCCNc1nc(NCCc2ccncc2)ncc1C(=O)Nc1cccc(NC(=O)[C@H](C)NC(=O)/C=C/CN(C)C)c1 [Compound 24] | < 1 | –
34 | C=CC(=O)NCC(=O)Nc1cccc(NC(=O)c2cnc(NCCc3ccncc3)nc2NCCC)c1 [Compound 2] | < 1 | –
35 | C=CC(=O)NC(C)(C)C(=O)Nc1cccc(NC(=O)c2cnc(NCCc3ccncc3)nc2NCCC)c1 [Compound 9] | < 1 | –
36 | CCCNc1nc(NCCc2ccncc2)ncc1C(=O)Nc1cccc(NC(=O)CNC(=O)/C=C/CN2CCOCC2)c1 [Compound 13] | 1 to 10 | –
37 | C=CC(=O)N(C)CC(=O)NC(CC)CCNC(=O)c1cnc(NCCc2ccncc2)nc1NCCC (stereo not drawn) [Compound 19] | < 1 | –
38 | CCCNc1nc(NCCc2ccncc2)ncc1C(=O)Nc1cccc(NC(=O)CNC(=O)/C=C/CN2CCN(C)CC2)c1 [Compound 12] | 1 to 10 | –
39 | CCCNc1nc(Nc2cccc(F)c2)ncc1C#CCCCNC(=O)[C@H](C)N(C)C(=O)/C=C/CN(C)C [Compound 34] | < 1 | –
40 | CCCNc1nc(Nc2ccc(C(N)=O)cc2)ncc1C(=O)Nc1cccc(NC(=O)[C@H](C)N(C)C(=O)/C=C/CN(C)C)c1 [Compound 27] | < 1 | –

From patent US9987278B2, “Pharmaceutical composition for treating FLT3 mutation-positive cancer, mutant FLT3 inhibitor and uses thereof” (FUJIFILM Corporation, priority 2014, dated 2018)
